The source made the active and inactive calls. No cut-off for these calls is given here. Peptide text beside a SMILES is read from it. * marks the point of attachment. Bz = O=C(c1ccccc1)*
Experiments:
[1] = biological target: Genome polyprotein (dengue virus type 2) (UniProt P29990); test: Inhibition of Dengue virus NS2B-NS3 protease at 50 uM using 2-Abz-Nle-Lys-Arg-Arg-Ser-(3-NO2)-Tyr-NH2 FRET substrate preincubated for 15 mins followed by substrate addition measured after 15 mins by fluorimetric analysis relative to control
Genome polyprotein [2] = biological target: T1, Genome polyprotein (dengue virus type 2, UniProt P29990); test: Inhibition of Dengue virus NS2B-NS3 protease using 2-Abz-Nle-Lys-Arg-Arg-Ser-(3-NO2)-Tyr-NH2 FRET substrate preincubated for 15 mins followed by substrate addition measured after 15 mins by fluorimetric analysis
[3] = biological target: Genome polyprotein (West Nile virus) (UniProt P06935); test: Inhibition of West Nile virus NS2B-NS3 protease at 50 uM using 2-Abz-Nle-Lys-Arg-Arg-Ser-(3-NO2)-Tyr-NH2 FRET substrate preincubated for 15 mins followed by substrate addition measured after 15 mins by fluorimetric analysis relative to control
[4] = biological target: Prothrombin (Homo sapiens) (UniProt P00734); test: Inhibition of thrombin (unknown origin) at 50 uM using Boc-Val-Pro-Arg-AMC as substrate preincubated for 15 mins followed by substrate addition measured after 10 mins by fluorimetric analysis relative to control
Trypsin (Homo sapiens) = Trypsin (Homo sapiens) (UniProt P07477+P07478+P35030); test: Inhibition of trypsin (unknown origin) at 50 uM using Boc-Val-Pro-Arg-AMC as substrate preincubated for 15 mins followed by substrate addition measured after 10 mins by fluorimetric analysis relative to control; type: protein assay
[5] = biological target: Genome polyprotein (dengue virus type 2) (UniProt P29990); test: Binding affinity to Dengue virus NS2B-NS3 protease assessed as presence of lysine and benzyloxy-phenylglycine residues in active site
dengue virus type 2 [6] = test: Binding affinity to Dengue virus serotype 2 […]-NS3 protease S135A mutant expressed in Escherichia coli BL21 lambda (DE3) cells assessed as effect on intrinsic fluorescence of tryptophan at active site up to 20 uM by tryptophan quenching assay
[7] = biological target: Genome polyprotein (dengue virus type 2) (UniProt P29990); test: Competitive inhibition of Dengue virus NS2B-NS3 protease assessed as increase in intrinsic fluorescence of tryptophan at active site up to 20 uM measured after 5 mins by tryptophan quenching assay
[8] = biological target: Genome polyprotein (dengue virus type 2) (UniProt P29990); test: Competitive inhibition of Dengue virus NS2B-NS3 protease assessed as increase in intrinsic fluorescence of tryptophan at active site at 20 to 60 uM measured after 5 mins in presence of quencher by tryptophan quenching assay
[9] = biological target: Genome polyprotein (dengue virus type 2) (UniProt P29990); test: Competitive inhibition of Dengue virus NS2B-NS3 protease assessed as increase in intrinsic fluorescence of tryptophan at active site measured after 5 mins in presence of quencher by tryptophan quenching assay
[10] = biological target: Genome polyprotein (dengue virus type 2) (UniProt P29990); test: Reversible inhibition of Dengue virus NS2B-NS3 protease assessed as increase in intrinsic fluorescence of tryptophan at active site at 60 uM pretreated for 16 hrs followed by quencher addition measured after 5 mins by tryptophan quenching assay
[11] = biological target: Genome polyprotein (dengue virus type 2) (UniProt P29990); test: (§1) Reversible inhibition of Dengue virus NS2B-NS3 protease at 60 uM preincubated for 3 to 6 hrs followed by 2-Abz-Nle-Lys-Arg-Arg-Ser-(3-NO2)-Tyr-NH2 FRET substrate addition followed by further compound dilution to 1.7 uM and measured every 30 mins for 2 hrs by dilution experiment based fluorimetric analysis
[12] = biological target: Genome polyprotein (dengue virus type 2) (UniProt P29990); test: as §1, with “Time dependent irreversible” for “Reversible”
dengue virus type 2 [13] = test: Binding affinity to Dengue virus serotype 2 […]-NS3 protease S135A mutant expressed in Escherichia coli BL21 lambda (DE3) cells assessed as effect on intrinsic fluorescence of tryptophan at active site at 20 to 60 uM measured after 5 mins in presence of quencher by tryptophan quenching assay
Huh-7 = test: Cytotoxicity against human HuH7 cells infected with Dengue virus serotype 2 assessed as effect on cell viability up to 50 uM after 48 hrs by Celltiter-blue assay; type: cell-based; conditions: huh-7, 48 h
dengue virus type 2 [14] = test: Antiviral activity against Dengue virus serotype 2 infected in HuH7 cells assessed as reduction in viral titer after 48 hrs by plaque assay; type: functional, organism-based; conditions: Huh-7, 48 h
Genome polyprotein [15] = biological target: T1, Genome polyprotein; test: Substrate activity at Dengue virus NS2B-NS3 protease assessed as time taken for peptide cleavage at 100 uM incubated for 11 hrs by HPLC-ESI/MS analysis; type: ADME
Genome polyprotein [16] = biological target: Genome polyprotein (West Nile virus, UniProt P06935); test: Inhibition of West Nile virus NS2B-NS3 protease using 2-Abz-Nle-Lys-Arg-Arg-Ser-(3-NO2)-Tyr-NH2 FRET substrate preincubated for 15 mins followed by substrate addition measured after 15 mins by fluorimetric analysis

| Structure (SMILES) | inhibition [1] | IC50 (Genome polyprotein [2]) | inhibition [3] | inhibition (Trypsin (Homo sapiens)) | other results |
| --- | --- | --- | --- | --- | --- |
| N=C(N)NCCC[C@H](NC(=O)c1ccccc1)C(=O)N[C@@H](CCCCN)C(=O)N[C@@H](C(=O)N[C@@H]1CN(c2cccc(F)c2)C1=O)c1ccc(OCc2ccccc2)cc1 | 80.8% | 12.4 µM | 61.6% | < 20% | inhibition [4]: < 20% |
| N=C(N)NCCC[C@H](NC(=O)[C@H](CCCCN)NC(=O)c1ccccc1)C(=O)N[C@@H]1CN(c2ccccc2)C1=O | < 20% | – | < 20% | – | – |
| CCCC[C@H](NC(=O)[C@H](CCCCN)NC(=O)c1ccccc1)C(=O)N[C@H]1CN(c2ccccc2)C1=O | < 20% | – | < 20% | – | – |
| CCCC[C@H](NC(=O)[C@H](CCCCN)NC(=O)c1ccccc1)C(=O)N[C@@H]1CN(c2ccccc2)C1=O | < 20% | – | 24.4% | > 20% | – |
| N=C(N)NCCC[C@H](NC(=O)c1ccccc1)C(=O)N[C@@H](CCCCN)C(=O)O (Bz-Arg-Lys-OH) | – | – | – | – | Activity [5]: Active |
| Cc1ccc(N2C[C@H](NC(=O)[C@H](NC(=O)[C@H](CCCCN)NC(=O)[C@H](CCCNC(=N)N)NC(=O)c3ccccc3)c3ccc(OCc4ccccc4)cc3)C2=O)cc1 | 95.9% | 2.7 µM | 60.3% | – | – |
| Cc1cccc(N2C[C@H](NC(=O)[C@H](NC(=O)[C@H](CCCCN)NC(=O)[C@H](CCCNC(=N)N)NC(=O)c3ccccc3)c3ccc(OCc4ccccc4)cc3)C2=O)c1 | 96.5% | 2.8 µM | 46.8% | – | – |
| N=C(N)NCCC[C@H](NC(=O)c1ccccc1)C(=O)N[C@@H](CCCCN)C(=O)N[C@@H](C(=O)N[C@@H]1CN(c2ccccc2)C1=O)c1ccc(OCc2ccccc2)cc1 | 68.8% | – | 46.9% | < 20% | inhibition [4]: < 20% |
| COc1cccc(COc2ccc([C@@H](NC(=O)[C@H](CCCCN)NC(=O)[C@H](CCCNC(=N)N)NC(=O)c3ccc(-c4cccs4)s3)C(N)=O)cc2)c1 | – | – | – | – | Activity (dengue virus type 2 [6]): Active; inhibition [7]: Active |
| N=C(N)NCCC[C@H](NC(=O)c1ccccc1)C(=O)N[C@@H](CCCCN)C(=O)N[C@@H](C(=O)N[C@H]1CN(c2ccccc2)C1=O)c1ccc(OCc2ccccc2)cc1 | 96% | 2.3 µM | 60.1% | – | inhibition [8]: Active; inhibition [9]: Dose-dependent effect; inhibition [10]: Active; inhibition [11]: inactive; inhibition [12]: inactive; Activity (dengue virus type 2 [13]): inactive; Activity (Huh-7): Non-Toxic; EC50 (dengue virus type 2 [14]): 11.7 µM; Time (Genome polyprotein [15]): 14 h |
| CCCC[C@H](NC(=O)[C@H](CCCNC(=N)N)NC(=O)c1ccccc1)C(=O)N[C@H]1CN(c2ccccc2)C1=O | < 20% | – | < 20% | > 20% | – |
| NCCCC[C@H](NC(=O)c1ccccc1)C(=O)N[C@@H](CCCCN)C(=O)N[C@H]1CN(c2ccccc2)C1=O | < 20% | – | < 20% | – | – |
| Cc1cccc(N2C[C@@H](NC(=O)[C@H](NC(=O)[C@H](CCCCN)NC(=O)[C@H](CCCNC(=N)N)NC(=O)c3ccccc3)c3ccc(OCc4ccccc4)cc3)C2=O)c1 | 77.7% | 16.4 µM | 45.1% | < 20% | inhibition [4]: < 20% |
| N=C(N)NCCC[C@H](NC(=O)c1ccccc1)C(=O)N[C@@H](CCCCN)C(=O)N[C@@H]1CN(c2ccccc2)C1=O | 71.6% | 17.7 µM | 27.8% | – | – |
| N=C(N)NCCC[C@H](NC(=O)c1ccccc1)C(=O)N[C@@H](CCCCN)C(=O)N[C@@H](C(=O)N[C@H]1CN(c2cccc(F)c2)C1=O)c1ccc(OCc2ccccc2)cc1 | 96.8% | 1.9 µM | 64.1% | – | – |
| CCCC[C@H](NC(=O)[C@H](CCCNC(=N)N)NC(=O)c1ccccc1)C(=O)N[C@@H]1CN(c2ccccc2)C1=O | < 20% | – | < 20% | – | – |
| N=C(N)NCCC[C@H](NC(=O)c1ccccc1)C(=O)N[C@@H](CCCCN)C(=O)N[C@@H](C(N)=O)c1ccc(OCc2ccccc2)cc1 | – | – | – | – | Time (Genome polyprotein [15]): 7 h |
| N=C(N)NCCC[C@H](NC(=O)c1ccccc1)C(=O)N[C@@H](CCCCN)C(=O)N[C@@H](C(=O)N[C@@H]1CN(c2ccc(F)cc2)C1=O)c1ccc(OCc2ccccc2)cc1 | 65.5% | – | 43.4% | < 20% | inhibition [4]: < 20% |
| Cc1ccc(N2C[C@@H](NC(=O)[C@H](NC(=O)[C@H](CCCCN)NC(=O)[C@H](CCCNC(=N)N)NC(=O)c3ccccc3)c3ccc(OCc4ccccc4)cc3)C2=O)cc1 | 73.5% | 15.9 µM | 52.9% | < 20% | inhibition [4]: < 20% |
| N=C(N)NCCC[C@H](NC(=O)c1ccccc1)C(=O)N[C@@H](CCCCN)C(=O)N[C@@H](C(=O)N[C@H]1CN(c2ccc(F)cc2)C1=O)c1ccc(OCc2ccccc2)cc1 | 96.3% | 2.5 µM | 60.9% | – | Activity (Huh-7): Non-Toxic; EC50 (dengue virus type 2 [14]): 4.1 µM |
| N=C(N)NCCC[C@H](NC(=O)c1ccccc1)C(=O)N[C@@H](CCCCN)C(=O)N[C@H]1CN(c2ccccc2)C1=O | 57.1% | – | 81.4% | – | IC50 (Genome polyprotein [16]): 22.5 µM |
| NCCCC[C@H](NC(=O)c1ccccc1)C(=O)N[C@@H](CCCCN)C(=O)N[C@@H]1CN(c2ccccc2)C1=O | 39.7% | – | 51.7% | > 20% | – |
| N=C(N)NCCC[C@H](NC(=O)[C@H](CCCCN)NC(=O)c1ccccc1)C(=O)N[C@H]1CN(c2ccccc2)C1=O | < 20% | – | < 20% | – | – |
| N[C@@H](C(=O)N[C@H]1CN(c2ccccc2)C1=O)c1ccc(OCc2ccccc2)cc1 | – | – | – | – | Activity [5]: Active |
